According to patent publication US6818765B1, “Benzene-sulphonamide derivatives and their uses” (Universite de Liege, priority 1999, dated 2004):
Where two headings read alike, the source gives them in different places.

Biological target: T1, thromboxane A2 receptors (TPα) of human platelets (Homo sapiens, UniProt P21731)
T1 construct: endogenous in cells; host or cells: human platelets
T1 sequence (P21731 1-343): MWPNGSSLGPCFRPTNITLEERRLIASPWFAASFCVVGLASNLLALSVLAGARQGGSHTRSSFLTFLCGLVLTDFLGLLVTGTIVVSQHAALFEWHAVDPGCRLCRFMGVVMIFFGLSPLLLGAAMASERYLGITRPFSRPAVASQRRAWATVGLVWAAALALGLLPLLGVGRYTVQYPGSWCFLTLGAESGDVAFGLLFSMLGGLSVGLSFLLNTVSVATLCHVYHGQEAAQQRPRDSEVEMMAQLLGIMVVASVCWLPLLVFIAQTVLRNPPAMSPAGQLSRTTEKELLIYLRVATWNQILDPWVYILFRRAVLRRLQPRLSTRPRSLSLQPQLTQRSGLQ
Assay: Binding test: displacement of [3H]SQ-29.548 from human platelet thromboxane A2 receptors
Details: for inhibition at 1 µM: read-out: Affinity: percent of [3H]SQ-29.548 specifically substituted by the examined compound, compound 10^-6 M; for inhibition at 0.1 µM: read-out: Affinity: percent of [3H]SQ-29.548 specifically substituted by the examined compound, compound 10^-7 M
From the text: To operate a first selection, the capacity of these compounds to displace in a specific way a tritium ligand, the [^3H]
Cozzi P., Giordani A., Menichincheri M., Pillan A., Pinciroli V., Rossi A., Tonani R., Volpi D., Tamburin M., Ferrario R., Fusar D., Salvati P.,—Agents combining thromboxane receptor antagonism with thromboxane synthase inhibition:[[[2-(1H-imidazol-1-yl)ethylidene]amino]oxy]alkanoic acids.—J. Med. Chem., 1994, 37, 3588-3604.

[1] = read-out: IC 50: concentration required for replacing 50% of [3H]SQ-29.548 bound to receptors TPα

| Structure (SMILES) | Affinity: percent of [3H]SQ-29.548 specifically substituted by the examined compound, 10^-6M [%] | IC50 [nM] | inhibition at 1 µM [%] | inhibition at 0.1 µM [%] | further results |
| --- | --- | --- | --- | --- | --- |
| CC(C)NC(=O)NS(=O)(=O)c1cc([N+](=O)[O-])ccc1Nc1cccc(C(=O)O)c1 [Compound 53] | 36.5 | – | – | – | – |
| CC(C)NC(=O)NS(=O)(=O)c1cc([N+](=O)[O-])ccc1NC1CC2CCC1C2 (stereo not drawn) [Compound 54] | 91.7 | – | – | – | – |
| CC(C)(C)NC(=O)NS(=O)(=O)c1cc([N+](=O)[O-])ccc1NC1CC2CCC1C2 (stereo not drawn) [Compound 55] | – | 3.4 | 98.2 | 93.3 | – |
| CC(C)NC(=O)NS(=O)(=O)c1cc([N+](=O)[O-])ccc1NC(C)(C)C [Compound 56] | 0.0 | – | – | – | – |
| CCCCCCNc1ccc([N+](=O)[O-])cc1S(=O)(=O)NC(=O)NC(C)C [Compound 57] | 67.0 | – | – | – | – |
| CC(C)NC(=O)NS(=O)(=O)c1cc([N+](=O)[O-])ccc1NC12CC3CC(CC(C3)C1)C2 [Compound 58] | 83.2 | – | – | – | – |
| CCCCCCNc1ccc([N+](=O)[O-])cc1S(=O)(=O)NC(=O)NC(C)(C)C [Compound 59] | 92.2 | – | – | – | – |
| CCCCCCCCCCNc1ccc([N+](=O)[O-])cc1S(=O)(=O)NC(=O)NC(C)C [Compound 60] | 79.1 | – | – | – | – |
| CCCCCNC(=O)NS(=O)(=O)c1cc([N+](=O)[O-])ccc1NC1CCCCC1 [Compound 61] | – | – | 98.6 | 94.8 | IC50 [1]: 1.1 nM |
| CC(C)NC(=O)NS(=O)(=O)c1cc([N+](=O)[O-])ccc1N1CCOCC1 [Compound 62] | 3.7 | – | – | – | – |
| CC(C)(C)NC(=O)NS(=O)(=O)c1cc([N+](=O)[O-])ccc1N1CCOCC1 [Compound 63] | 7.5 | – | – | – | – |
| CC(C)NC(=O)NS(=O)(=O)c1cc([N+](=O)[O-])ccc1N1CCCCCC1 [Compound 64] | 57.8 | – | – | – | – |
| O=C(Nc1ccccc1)NS(=O)(=O)c1cc([N+](=O)[O-])ccc1NC1CCCCC1 [Compound 65] | 46.6 | – | – | – | – |
| CC(C)NC(=O)NS(=O)(=O)c1cc(C#N)ccc1NC1CC2CCC1C2 (stereo not drawn) [Compound 66] | 49.6 | – | – | – | – |
| Cc1ccc(Nc2ccc([N+](=O)[O-])cc2S(=O)(=O)NC(=O)NC(C)(C)C)cc1 [Compound 67] | 98.3 | – | – | – | Affinity: percent of [3H]SQ-29.548 specifically substituted by the examined compound, 10^-7M: 95.8%; IC50 [1]: 1.3 nM |
| CC(C)NC(=O)NS(=O)(=O)c1cc([N+](=O)[O-])ccc1NC1C=CCCC1 (stereo not drawn) [Compound 68] | 93.2 | – | – | – | Affinity: percent of [3H]SQ-29.548 specifically substituted by the examined compound, 10^-7M: 67.4% |
| CC(C)NC(=O)NS(=O)(=O)c1cc(F)ccc1NC1C=CCCC1 (stereo not drawn) [Compound 69] | 13.2 | – | – | – | – |
| CC(C)NC(=O)NS(=O)(=O)c1cc(Cl)ccc1NC1C=CCCC1 (stereo not drawn) [Compound 70] | 63.8 | – | – | – | – |
| CC(C)NC(=O)NS(=O)(=O)c1cc(Br)ccc1NC1C=CCCC1 (stereo not drawn) [Compound 71] | 77.8 | – | – | – | – |
| CC(C)NC(=O)NS(=O)(=O)c1cc(I)ccc1NC1C=CCCC1 (stereo not drawn) [Compound 72] | 86.5 | – | – | – | Affinity: percent of [3H]SQ-29.548 specifically substituted by the examined compound, 10^-7M: 52.7% |
| Cc1cccc(Nc2ccc([N+](=O)[O-])cc2S(=O)(=O)NC(=O)NC(C)(C)C)c1C [Compound 73] | – | 1.2 | 98.3 | 95.6 | – |
| CC(C)(C)NC(=NC#N)NS(=O)(=O)c1cc([N+](=O)[O-])ccc1NC1CCCCC1 [Compound 74] | 90.9 | – | – | – | – |

| Structure (SMILES) | Affinity: percent of [3H]SQ-29.548 specifically substituted by the examined compound, 10^-6M [%] | IC50 [nM] | inhibition at 1 µM [%] | inhibition at 0.1 µM [%] | further results |
| --- | --- | --- | --- | --- | --- |
| CC(C)NC(=O)NS(=O)(=O)c1cc([N+](=O)[O-])ccc1N[C@@H](C)c1ccccc1 [Compound 77] | 79.4 | – | – | – | – |
| C[C@H](Nc1ccc([N+](=O)[O-])cc1S(=O)(=O)NC(=O)NC(C)(C)C)c1ccccc1 [Compound 78] | – | 4.2 | 95.3 | 71.6 | – |
| CC(C)NC(=O)NS(=O)(=O)c1cc([N+](=O)[O-])ccc1N[C@H](C)c1ccccc1 [Compound 79] | 96.6 | – | – | – | – |
| C[C@@H](Nc1ccc([N+](=O)[O-])cc1S(=O)(=O)NC(=O)NC(C)(C)C)c1ccccc1 [Compound 80] | – | 2.4 | 98.6 | 97.9 | – |
| CCCNC(=O)NS(=O)(=O)c1cc([N+](=O)[O-])ccc1NC1CCCCC1 [Compound 81] | – | 57.8 | 93.3 | 65 | – |
| CCCCNC(=O)NS(=O)(=O)c1cc([N+](=O)[O-])ccc1NC1CCCCC1 [Compound 82] | – | 4.5 | 98.5 | 98 | – |
| CCCCCCNC(=O)NS(=O)(=O)c1cc([N+](=O)[O-])ccc1NC1CCCCC1 [Compound 83] | – | 4.5 | 98.5 | 92.7 | – |
| CCCCCCCNC(=O)NS(=O)(=O)c1cc([N+](=O)[O-])ccc1NC1CCCCC1 [Compound 84] | – | 23.9 | 96.9 | 73.7 | – |
| CCCCCCCCNC(=O)NS(=O)(=O)c1cc([N+](=O)[O-])ccc1NC1CCCCC1 [Compound 85] | – | 107 | 92.9 | 42.5 | – |
| Cc1cc(C)c(Nc2ccc([N+](=O)[O-])cc2S(=O)(=O)NC(=O)NC(C)C)c(C)c1 [Compound 86] | – | 1.83 | 98.4 | 94.3 | – |
| Cc1ccc(Nc2ccc([N+](=O)[O-])cc2S(=O)(=O)NC(=O)NC(C)C)cc1C [Compound 87] | – | 18.1 | 95.6 | 76 | – |
| Cc1cc(C)cc(Nc2ccc([N+](=O)[O-])cc2S(=O)(=O)NC(=O)NC(C)C)c1 [Compound 88] | – | 16.2 | 95.4 | 82 | – |
| Cc1ccc(C)c(Nc2ccc([N+](=O)[O-])cc2S(=O)(=O)NC(=O)NC(C)C)c1 [Compound 89] | – | 11.5 | 96.6 | 83.5 | – |
| Cc1ccc(Nc2ccc([N+](=O)[O-])cc2S(=O)(=O)NC(=O)NC(C)C)c(C)c1 [Compound 90] | – | 5.46 | 96.9 | 88.6 | – |
| Cc1cccc(C)c1Nc1ccc([N+](=O)[O-])cc1S(=O)(=O)NC(=O)NC(C)C [Compound 91] | – | 3.31 | 97.3 | 90.8 | – |
| CCCCCNC(=O)NS(=O)(=O)c1cc([N+](=O)[O-])ccc1Nc1c(C)cc(C)cc1C [Compound 92] | – | 1.62 | 98.8 | 95.2 | – |
| CCCCCNC(=O)NS(=O)(=O)c1cc(I)ccc1NC1C=CCCC1 (stereo not drawn) [Compound 93] | – | 7.8 | 97.9 | 90.2 | – |
| CCCCCNC(=O)NS(=O)(=O)c1cc([N+](=O)[O-])ccc1Nc1ccccc1C [Compound 94] | 98.4 | – | – | – | IC50 [1]: 2.82 nM |
| CCCCCNC(=O)NS(=O)(=O)c1cc([N+](=O)[O-])ccc1Nc1ccc(C)cc1 [Compound 95] | – | 1.45 | 98.5 | – | – |
| CCCCCNC(=O)NS(=O)(=O)c1cc([N+](=O)[O-])ccc1Nc1cccc(C)c1 [Compound 96] | – | 43.9 | 92.3 | – | – |
| CCCCCNC(=O)NS(=O)(=O)c1cc(C#N)ccc1NC1CCCCC1 [Compound 97] | – | 98.5 | 89.7 | – | – |
